Assay results reported in ChEMBL document CHEMBL1201862, “PubChem BioAssay data set” (2004).
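Tested at 5 concentrations; 48 h exposure; 96-well plates; endpoints linearly interpolated, else capped at highest concentration. The concentration for 50% growth inhibition is given as GI50.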 Calls of active or inactive are those of the source. No stated cut-off is given here; in the data, active = GI50 up to about 1.1 µM and inactive = higher.

Tests used:
Assay in all cases: NCI tumour cell line growth inhibition, 48 h
OVCAR-3 = system: OVCAR-3
CAKI-1 = system: CAKI-1
OVCAR-5 = system: OVCAR-5
SF-539 = system: SF-539
RXF 393 = system: RXF 393
HL-60 = system: HL-60
COLO 205 = system: COLO 205
LOX IMVI = system: LOX IMVI
SW-620 = system: SW-620
MDA-N = system: MDA-N
UO-31 = system: UO-31
A549 = system: A549
SF-295 = system: SF-295
NCI-H226 = system: NCI-H226
T47D = system: T47D
SNB-75 = system: SNB-75
HCT-116 = system: HCT-116
IGROV-1 = system: IGROV-1
MCF7 = system: MCF7
SK-MEL-28 = system: SK-MEL-28
MOLT-4 = system: MOLT-4
CCRF-CEM = system: CCRF-CEM
RPMI-8226 = system: RPMI-8226
SN12C = system: SN12C
NCI-H23 = system: NCI-H23
SR = system: SR
DU-145 = system: DU-145
NCI/ADR-RES = system: NCI/ADR-RES
HCT-15 = system: HCT-15
K562 = system: K562
PC-3 = system: PC-3
HT-29 = system: HT-29
SK-MEL-2 = system: SK-MEL-2
786-0 = system: 786-0
SNB-19 = system: SNB-19
UACC-62 = system: UACC-62
OVCAR-4 = system: OVCAR-4
SF-268 = system: SF-268
BT-549 = system: BT-549
ACHN = system: ACHN
HOP-62 = system: HOP-62
SK-OV-3 = system: SK-OV-3
HOP-92 = system: HOP-92
SK-MEL-5 = system: SK-MEL-5
NCI-H522 = system: NCI-H522
M14 = system: M14
EKVX = system: EKVX
KM12 = system: KM12
MDA-MB-435 = system: MDA-MB-435
A498 = system: A498
Malme-3M = system: Malme-3M
OVCAR-8 = system: OVCAR-8
NCI-H460 = system: NCI-H460
U-251 = system: U-251
Hs-578T = system: Hs-578T
UACC-257 = system: UACC-257
TK-10 = system: TK-10
MDA-MB-231 = system: MDA-MB-231
HCC 2998 = system: HCC 2998

Compound: O=C(NNC(=O)c1c(Cl)c(Cl)c(Cl)c(Cl)c1-c1nc2ccccc2[nH]1)c1ccc(Cl)cc1
- GI50 (OVCAR-3): 65.2 µM (inactive)
- GI50 (CAKI-1): 40.6 µM (inactive)
- GI50 (OVCAR-5): > 100 µM (inactive)
- GI50 (SF-539): 47.4 µM (inactive)
- GI50 (RXF 393): 43.4 µM (inactive)
- GI50 (HL-60): 36.1 µM (inactive)
- GI50 (COLO 205): 32.1 µM (inactive)
- GI50 (LOX IMVI): 65.9 µM (inactive)
- GI50 (SW-620): 50.7 µM (inactive)
- GI50 (MDA-N): 21.3 µM (inactive)
- GI50 (UO-31): 30.3 µM (inactive)
- GI50 (A549): 45 µM (inactive)
- GI50 (SF-295): 44.5 µM (inactive)
- GI50 (NCI-H226): 43.4 µM (inactive)
- GI50 (T47D): 21.7 µM (inactive)
- GI50 (SNB-75): 38.5 µM (inactive)
- GI50 (HCT-116): 46.3 µM (inactive)
- GI50 (IGROV-1): 17.5 µM (inactive)
- GI50 (MCF7): 34.9 µM (inactive)
- GI50 (SK-MEL-28): 81.1 µM (inactive)
- GI50 (MOLT-4): 38.9 µM (inactive)
- GI50 (CCRF-CEM): 22.4 µM (inactive)
- GI50 (RPMI-8226): 33 µM (inactive)
- GI50 (SN12C): 37.7 µM (inactive)
- GI50 (NCI-H23): 40.6 µM (inactive)
- GI50 (SR): 33.8 µM (inactive)
- GI50 (DU-145): 42.5 µM (inactive)
- GI50 (NCI/ADR-RES): 32.9 µM (inactive)
- GI50 (HCT-15): 34.4 µM
- GI50 (K562): 35.8 µM (inactive)
- GI50 (PC-3): 55 µM (inactive)
- GI50 (HT-29): 58.6 µM (inactive)
- GI50 (SK-MEL-2): 37.9 µM (inactive)
- GI50 (786-0): 51.8 µM (inactive)
- GI50 (SNB-19): 68.5 µM (inactive)
- GI50 (UACC-62): 56.4 µM (inactive)
- GI50 (OVCAR-4): 50.2 µM (inactive)
- GI50 (SF-268): > 100 µM (inactive)
- GI50 (BT-549): 46.1 µM (inactive)
- GI50 (ACHN): 46.9 µM (inactive)
- GI50 (HOP-62): 61.9 µM (inactive)
- GI50 (SK-OV-3): > 100 µM (inactive)
- GI50 (HOP-92): 24.6 µM (inactive)
- GI50 (SK-MEL-5): 38.3 µM (inactive)
- GI50 (NCI-H522): 49.8 µM (inactive)
- GI50 (M14): 35.5 µM (inactive)
- GI50 (EKVX): 44.2 µM (inactive)
- GI50 (KM12): 38.1 µM (inactive)
- GI50 (MDA-MB-435): 24 µM (inactive)
- GI50 (A498): 54.5 µM (inactive)
- GI50 (Malme-3M): 89.3 µM (inactive)
- GI50 (OVCAR-8): 66.1 µM (inactive)

Compound: N#Cc1c(O)c(/N=N/c2ccccc2F)c(=O)n2c1[nH]c1ccccc12
- GI50 (OVCAR-3): 36 µM (inactive)
- GI50 (OVCAR-5): 34 µM (inactive)
- GI50 (SF-539): > 100 µM (inactive)
- GI50 (RXF 393): 37.8 µM (inactive)
- GI50 (NCI-H460): 32.6 µM (inactive)
- GI50 (HL-60): 33 µM (inactive)
- GI50 (COLO 205): 55.1 µM (inactive)
- GI50 (LOX IMVI): 61.9 µM (inactive)
- GI50 (SW-620): 63.2 µM (inactive)
- GI50 (MDA-N): 22 µM (inactive)
- GI50 (UO-31): 29.3 µM (inactive)
- GI50 (A549): 42.5 µM (inactive)
- GI50 (SF-295): 33 µM (inactive)
- GI50 (NCI-H226): 33.7 µM (inactive)
- GI50 (SNB-75): 30.4 µM (inactive)
- GI50 (HCT-116): 26.6 µM (inactive)
- GI50 (U-251): 32.7 µM (inactive)
- GI50 (IGROV-1): 74.8 µM (inactive)
- GI50 (MCF7): 32.7 µM (inactive)
- GI50 (SK-MEL-28): 29.4 µM (inactive)
- GI50 (CCRF-CEM): 36.8 µM (inactive)
- GI50 (SN12C): 31.6 µM (inactive)
- GI50 (NCI-H23): 38.2 µM (inactive)
- GI50 (DU-145): 42.4 µM (inactive)
- GI50 (NCI/ADR-RES): 50 µM (inactive)
- GI50 (HCT-15): 37.2 µM
- GI50 (K562): 36.3 µM (inactive)
- GI50 (PC-3): 30.3 µM (inactive)
- GI50 (HT-29): 23.3 µM (inactive)
- GI50 (SK-MEL-2): 20.9 µM (inactive)
- GI50 (Hs-578T): 15.4 µM (inactive)
- GI50 (786-0): 43.7 µM (inactive)
- GI50 (UACC-257): 33.9 µM (inactive)
- GI50 (SNB-19): 48.1 µM (inactive)
- GI50 (UACC-62): 20.6 µM (inactive)
- GI50 (TK-10): 55.6 µM (inactive)
- GI50 (OVCAR-4): 39.3 µM (inactive)
- GI50 (SF-268): 32.4 µM (inactive)
- GI50 (MDA-MB-231): 22.2 µM (inactive)
- GI50 (BT-549): 60 µM (inactive)
- GI50 (ACHN): 34 µM (inactive)
- GI50 (HOP-62): 43.7 µM (inactive)
- GI50 (SK-OV-3): 50.5 µM (inactive)
- GI50 (HOP-92): 15.1 µM (inactive)
- GI50 (SK-MEL-5): 42 µM (inactive)
- GI50 (NCI-H522): 27.9 µM (inactive)
- GI50 (M14): 22.4 µM (inactive)
- GI50 (EKVX): > 100 µM (inactive)
- GI50 (MDA-MB-435): 21.6 µM (inactive)
- GI50 (HCC 2998): 53.6 µM (inactive)
- GI50 (A498): 60.5 µM (inactive)
- GI50 (Malme-3M): 28.5 µM (inactive)
- GI50 (OVCAR-8): 39.3 µM (inactive)

Compound: CC1(C)OCC2OC3([C@H](O)CCO)OC(C)(C)OC3C2O1 (some centres not stated)
- GI50 (OVCAR-3): > 100 µM (inactive)
- GI50 (CAKI-1): > 100 µM (inactive)
- GI50 (OVCAR-5): > 100 µM (inactive)
- GI50 (SF-539): > 100 µM (inactive)
- GI50 (RXF 393): > 100 µM (inactive)
- GI50 (NCI-H460): > 100 µM (inactive)
- GI50 (COLO 205): > 100 µM (inactive)
- GI50 (LOX IMVI): > 100 µM (inactive)
- GI50 (SW-620): > 100 µM (inactive)
- GI50 (MDA-N): > 100 µM (inactive)
- GI50 (UO-31): > 100 µM (inactive)
- GI50 (A549): > 100 µM (inactive)
- GI50 (SF-295): > 100 µM (inactive)
- GI50 (NCI-H226): > 100 µM (inactive)
- GI50 (T47D): > 100 µM (inactive)
- GI50 (SNB-75): > 100 µM (inactive)
- GI50 (HCT-116): > 100 µM (inactive)
- GI50 (U-251): > 100 µM (inactive)
- GI50 (IGROV-1): > 100 µM (inactive)
- GI50 (MCF7): > 100 µM (inactive)
- GI50 (SK-MEL-28): > 100 µM (inactive)
- GI50 (MOLT-4): > 100 µM (inactive)
- GI50 (CCRF-CEM): > 100 µM (inactive)
- GI50 (RPMI-8226): > 100 µM (inactive)
- GI50 (SN12C): > 100 µM (inactive)
- GI50 (NCI-H23): > 100 µM (inactive)
- GI50 (SR): > 100 µM (inactive)
- GI50 (DU-145): > 100 µM (inactive)
- GI50 (NCI/ADR-RES): > 100 µM (inactive)
- GI50 (HCT-15): > 100 µM
- GI50 (K562): > 100 µM (inactive)
- GI50 (PC-3): > 100 µM (inactive)
- GI50 (HT-29): > 100 µM (inactive)
- GI50 (SK-MEL-2): > 100 µM (inactive)
- GI50 (786-0): > 100 µM (inactive)
- GI50 (UACC-257): > 100 µM (inactive)
- GI50 (SNB-19): > 100 µM (inactive)
- GI50 (UACC-62): > 100 µM (inactive)
- GI50 (OVCAR-4): > 100 µM (inactive)
- GI50 (MDA-MB-231): > 100 µM (inactive)
- GI50 (BT-549): > 100 µM (inactive)
- GI50 (ACHN): > 100 µM (inactive)
- GI50 (HOP-62): > 100 µM (inactive)
- GI50 (HOP-92): > 100 µM (inactive)
- GI50 (SK-MEL-5): > 100 µM (inactive)
- GI50 (M14): > 100 µM (inactive)
- GI50 (EKVX): > 100 µM (inactive)
- GI50 (KM12): > 100 µM (inactive)
- GI50 (MDA-MB-435): > 100 µM (inactive)
- GI50 (HCC 2998): > 100 µM (inactive)
- GI50 (A498): > 100 µM (inactive)
- GI50 (OVCAR-8): > 100 µM (inactive)
